Source: the supplement of paper PMC10307832

compound: C[C@@H](C(=O)N[C@@H](C1CCCCC1)C(=O)N2CCC[C@H]2C(=O)N[C@@H]3[C@@H](CC4=CC=CC=C34)OCC#CC#CCO[C@@H]5CC6=CC=CC=C6[C@@H]5NC(=O)[C@@H]7CCCN7C(=O)[C@H](C8CCCCC8)NC(=O)[C@H](C)NC)NC [AZD5582] + N=C(N)NC(=N)NCCc1ccccc1 [Phenformin] (partner 250 µM); test: relative viability (nuclei count vs DMSO), 5 days (fraction); higher = more cells survive; conditions: first compound 0.001581 µM
How it was run: (§1)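 Relative viability was taken as the ratio of nuclei in treated wells to nuclei in vehicle wells. Lung cancer cell lines in 1536-well plates received compounds by pin tool one day after seeding, either one drug alone or a fixed anchor-drug dose plus five library-drug doses (not always all listed) in √10 steps. Nuclei were counted on 4× images after 5 days of treatment, and values are medians of duplicate plates.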

Cell Line | relative viability
SK-MES-1 | 0.6
SW 900 | 0.502
SW 1573 | 0.394
UMC-11 | 0.281

same assay, conditions: first compound 0.005 µM

Cell Line | relative viability
SK-MES-1 | 0.678
SW 900 | 0.632
SW 1573 | 0.466
UMC-11 | 0.301

same assay, conditions: first compound 0.01581 µM

Cell Line | relative viability
SK-MES-1 | 0.649
SW 900 | 0.414
SW 1573 | 0.37
UMC-11 | 0.298

same assay, conditions: first compound 0.05 µM

Cell Line | relative viability
SK-MES-1 | 0.655
SW 900 | 0.401
SW 1573 | 0.499
UMC-11 | 0.412

compound: Cn1nnc2c(C(N)=O)ncn2c1=O [Temozolomide] + N=C(N)NC(=N)NCCc1ccccc1 [Phenformin] (partner 250 µM); test: as above; conditions: first compound 0.2 µM
How it was run: as §1

Cell Line | relative viability
SK-MES-1 | 0.752
SW 900 | 0.754
SW 1573 | 0.348
UMC-11 | 0.378

same assay, conditions: first compound 0.6325 µM

Cell Line | relative viability
SK-MES-1 | 0.68
SW 900 | 0.671
SW 1573 | 0.384
UMC-11 | 0.357

same assay, conditions: first compound 2 µM

Cell Line | relative viability
SK-MES-1 | 0.7
SW 900 | 0.556
SW 1573 | 0.457
UMC-11 | 0.378

same assay, conditions: first compound 6.325 µM

Cell Line | relative viability
SK-MES-1 | 0.729
SW 900 | 0.464
SW 1573 | 0.367
UMC-11 | 0.326

same assay, conditions: first compound 20 µM

Cell Line | relative viability
SK-MES-1 | 0.682
SW 900 | 0.718
SW 1573 | 0.348
UMC-11 | 0.301

compound: C[C@@H](C(=O)N[C@@H](C1CCCCC1)C(=O)N2CCC[C@H]2C(=O)N[C@@H]3[C@@H](CC4=CC=CC=C34)OCC#CC#CCO[C@@H]5CC6=CC=CC=C6[C@@H]5NC(=O)[C@@H]7CCCN7C(=O)[C@H](C8CCCCC8)NC(=O)[C@H](C)NC)NC [AZD5582] + CC(=O)c1c(C)c2cnc(Nc3ccc(N4CCNCC4)cn3)nc2n(C2CCCC2)c1=O [Palbociclib] (partner 0.5 µM); test: as above; conditions: first compound 0.001581 µM
How it was run: as §1

Cell Line | relative viability
SK-MES-1 | 0.286
SW 900 | 0.443
SW 1573 | 0.352
UMC-11 | 0.345

same assay, conditions: first compound 0.005 µM

Cell Line | relative viability
SK-MES-1 | 0.32
SW 900 | 0.566
SW 1573 | 0.451
UMC-11 | 0.324

same assay, conditions: first compound 0.01581 µM

Cell Line | relative viability
SK-MES-1 | 0.332
SW 900 | 0.531
SW 1573 | 0.402
UMC-11 | 0.394

same assay, conditions: first compound 0.05 µM

Cell Line | relative viability
SK-MES-1 | 0.291
SW 900 | 0.435
SW 1573 | 0.407
UMC-11 | 0.339

compound: C[C@@H](C(=O)N[C@@H](C1CCCCC1)C(=O)N2CCC[C@H]2C(=O)N[C@@H]3[C@@H](CC4=CC=CC=C34)OCC#CC#CCO[C@@H]5CC6=CC=CC=C6[C@@H]5NC(=O)[C@@H]7CCCN7C(=O)[C@H](C8CCCCC8)NC(=O)[C@H](C)NC)NC [AZD5582] + COc1cccc2cc(-c3nc([C@H]4CC[C@H](C(=O)O)CC4)n4ncnc(N)c34)[nH]c12 [OSI-027] (partner 0.5 µM); test: as above; conditions: first compound 0.001581 µM
How it was run: as §1

Cell Line | relative viability
SK-MES-1 | 0.599
SW 900 | 0.412
SW 1573 | 0.72
UMC-11 | 0.469

same assay, conditions: first compound 0.005 µM

Cell Line | relative viability
SK-MES-1 | 0.602
SW 900 | 0.559
SW 1573 | 0.66
UMC-11 | 0.53

same assay, conditions: first compound 0.01581 µM

Cell Line | relative viability
SK-MES-1 | 0.566
SW 900 | 0.518
SW 1573 | 0.662
UMC-11 | 0.476

same assay, conditions: first compound 0.05 µM

Cell Line | relative viability
SK-MES-1 | 0.591
SW 900 | 0.571
SW 1573 | 0.862
UMC-11 | 0.454
